# Experiments:
# Assay in all cases: relative viability (nuclei count vs DMSO), 5 days (fraction); higher = more cells survive
# [1] = tested on: HARA
# Outline: (§1)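 Lung cancer cell lines in 1536-well plates were dosed by pin tool the day after seeding, either with one drug alone or with a fixed anchor-drug dose plus five library-drug doses (not always all listed) in √10 steps. After 5 days, cells were fixed and their nuclei stained in one step (final 0.05% Triton X-100, 1% formaldehyde, 1 ug/ml Hoechst), then counted on 4× images. Relative viability is the nuclei count in treated wells divided by that in vehicle wells. Values are medians of duplicate plates.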
# [2] = tested on: NCI-H647
# Outline: as §1
# [3] = tested on: SW 900
# Outline: as §1
# [4] = tested on: A-427
# Outline: as §1
# [5] = tested on: NCI-H1993
# Outline: as §1
# [6] = tested on: EPLC-272H
# Outline: as §1
# [7] = tested on: NCI-H1734
# Outline: as §1
# [8] = tested on: NCI-H358
# Outline: as §1
# [9] = tested on: NCI-H522
# Outline: as §1
# [10] = tested on: LK-2
# Outline: as §1
# [11] = tested on: RERF-LC-KJ
# Outline: as §1
# [12] = tested on: NCI-H2405
# Outline: as §1
# [13] = tested on: NCI-H460
# Outline: as §1
# [14] = tested on: NCI-H1755
# Outline: as §1
# [15] = tested on: EMC-BAC-2
# Outline: as §1
# [16] = tested on: NCI-H1650
# Outline: as §1
# [17] = tested on: COR-L 105
# Outline: as §1
# [18] = tested on: HCC-44
# Outline: as §1
# [19] = tested on: NCI-H596
# Outline: as §1
# [20] = tested on: LU99A
# Outline: as §1
# [21] = tested on: EKVX
# Outline: as §1
# [22] = tested on: ChaGo-K-1
# Outline: as §1
smiles,measurement,setting,value
Cc1cn(-c2cc(NC(=O)c3ccc(C)c(Nc4nccc(-c5cccnc5)n4)c3)cc(C(F)(F)F)c2)cn1 [Nilotinib] + Cc1cc(Nc2cc(N3CCN(C)CC3)nc(Sc3ccc(NC(=O)C4CC4)cc3)n2)n[nH]1 [Tozasertib] (partner 0.1 µM),relative viability,[1]; first compound 0.001 µM,0.0752
same,relative viability,[1]; first compound 0.003162 µM,0.102
same,relative viability,[1]; first compound 0.01 µM,0.102
same,relative viability,[1]; first compound 0.03162 µM,0.0999
same,relative viability,[1]; first compound 0.1 µM,0.0992
same,relative viability,[2]; first compound 0.001 µM,0.147
same,relative viability,[2]; first compound 0.003162 µM,0.227
same,relative viability,[2]; first compound 0.01 µM,0.164
same,relative viability,[2]; first compound 0.03162 µM,0.143
same,relative viability,[2]; first compound 0.1 µM,0.139
same,relative viability,[3]; first compound 0.001 µM,0.324
same,relative viability,[3]; first compound 0.003162 µM,0.51
same,relative viability,[3]; first compound 0.01 µM,0.389
same,relative viability,[3]; first compound 0.03162 µM,0.34
same,relative viability,[3]; first compound 0.1 µM,0.262
same,relative viability,[4]; first compound 0.001 µM,0.168
same,relative viability,[4]; first compound 0.003162 µM,0.184
same,relative viability,[4]; first compound 0.01 µM,0.149
same,relative viability,[4]; first compound 0.03162 µM,0.167
same,relative viability,[4]; first compound 0.1 µM,0.168
same,relative viability,[5]; first compound 0.001 µM,0.611
same,relative viability,[5]; first compound 0.003162 µM,0.668
same,relative viability,[5]; first compound 0.01 µM,0.622
same,relative viability,[5]; first compound 0.03162 µM,0.586
same,relative viability,[5]; first compound 0.1 µM,0.631
same,relative viability,[6]; first compound 0.001 µM,0.212
same,relative viability,[6]; first compound 0.003162 µM,0.18
same,relative viability,[6]; first compound 0.01 µM,0.251
same,relative viability,[6]; first compound 0.03162 µM,0.182
same,relative viability,[6]; first compound 0.1 µM,0.105
same,relative viability,[7]; first compound 0.001 µM,0.251
same,relative viability,[7]; first compound 0.003162 µM,0.273
same,relative viability,[7]; first compound 0.01 µM,0.324
same,relative viability,[7]; first compound 0.03162 µM,0.231
same,relative viability,[7]; first compound 0.1 µM,0.214
same,relative viability,[8]; first compound 0.001 µM,0.0908
same,relative viability,[8]; first compound 0.003162 µM,0.0985
same,relative viability,[8]; first compound 0.01 µM,0.0881
same,relative viability,[8]; first compound 0.03162 µM,0.101
same,relative viability,[8]; first compound 0.1 µM,0.116
same,relative viability,[9]; first compound 0.001 µM,0.484
same,relative viability,[9]; first compound 0.003162 µM,0.605
same,relative viability,[9]; first compound 0.01 µM,0.521
same,relative viability,[9]; first compound 0.03162 µM,0.558
same,relative viability,[9]; first compound 0.1 µM,0.619
same,relative viability,[10]; first compound 0.001 µM,0.181
same,relative viability,[10]; first compound 0.003162 µM,0.163
same,relative viability,[10]; first compound 0.01 µM,0.155
same,relative viability,[10]; first compound 0.03162 µM,0.175
same,relative viability,[11]; first compound 0.001 µM,0.335
same,relative viability,[11]; first compound 0.003162 µM,0.416
same,relative viability,[11]; first compound 0.01 µM,0.305
same,relative viability,[11]; first compound 0.03162 µM,0.349
same,relative viability,[11]; first compound 0.1 µM,0.302
same,relative viability,[12]; first compound 0.001 µM,0.767
same,relative viability,[12]; first compound 0.003162 µM,0.765
same,relative viability,[12]; first compound 0.01 µM,0.712
same,relative viability,[12]; first compound 0.03162 µM,0.654
same,relative viability,[12]; first compound 0.1 µM,0.723
same,relative viability,[13]; first compound 0.001 µM,0.152
same,relative viability,[13]; first compound 0.03162 µM,0.1
same,relative viability,[13]; first compound 0.1 µM,0.0459
same,relative viability,[14]; first compound 0.001 µM,0.537
same,relative viability,[14]; first compound 0.003162 µM,0.548
same,relative viability,[14]; first compound 0.01 µM,0.483
same,relative viability,[14]; first compound 0.03162 µM,0.578
same,relative viability,[14]; first compound 0.1 µM,0.415
same,relative viability,[15]; first compound 0.001 µM,0.259
same,relative viability,[15]; first compound 0.003162 µM,0.258
same,relative viability,[15]; first compound 0.01 µM,0.244
same,relative viability,[15]; first compound 0.03162 µM,0.269
same,relative viability,[16]; first compound 0.001 µM,0.329
same,relative viability,[16]; first compound 0.003162 µM,0.355
same,relative viability,[16]; first compound 0.01 µM,0.324
same,relative viability,[16]; first compound 0.03162 µM,0.324
same,relative viability,[16]; first compound 0.1 µM,0.256
same,relative viability,[17]; first compound 0.001 µM,0.361
same,relative viability,[17]; first compound 0.003162 µM,0.329
same,relative viability,[17]; first compound 0.01 µM,0.497
same,relative viability,[17]; first compound 0.03162 µM,0.329
same,relative viability,[17]; first compound 0.1 µM,0.317
same,relative viability,[18]; first compound 0.001 µM,0.615
same,relative viability,[18]; first compound 0.003162 µM,0.842
same,relative viability,[18]; first compound 0.01 µM,0.948
same,relative viability,[18]; first compound 0.03162 µM,0.621
same,relative viability,[18]; first compound 0.1 µM,0.487
same,relative viability,[19]; first compound 0.001 µM,0.799
same,relative viability,[19]; first compound 0.003162 µM,0.972
same,relative viability,[19]; first compound 0.01 µM,1.01
same,relative viability,[19]; first compound 0.03162 µM,0.619
same,relative viability,[19]; first compound 0.1 µM,0.68
same,relative viability,[20]; first compound 0.001 µM,0.232
same,relative viability,[20]; first compound 0.003162 µM,0.268
same,relative viability,[20]; first compound 0.01 µM,0.211
same,relative viability,[20]; first compound 0.03162 µM,0.256
same,relative viability,[20]; first compound 0.1 µM,0.226
same,relative viability,[21]; first compound 0.001 µM,0.368
same,relative viability,[21]; first compound 0.003162 µM,0.341
same,relative viability,[21]; first compound 0.01 µM,0.35
same,relative viability,[21]; first compound 0.03162 µM,0.252
same,relative viability,[21]; first compound 0.1 µM,0.261
same,relative viability,[22]; first compound 0.001 µM,0.205
same,relative viability,[22]; first compound 0.003162 µM,0.229
same,relative viability,[22]; first compound 0.01 µM,0.202
same,relative viability,[22]; first compound 0.03162 µM,0.162
same,relative viability,[22]; first compound 0.1 µM,0.138
